Test system: 777334-354-R2-J4-PDC tumor spheroids with HUVEC/MSC, viability
Experiment: Anticancer human tumor 777334-354-R2-J4-PDC patient-derived pancreatic adenocarcinoma cell line growth inhibition [GQUAD]
Conditions: for IC50: curve of first compound; for viability, T/C: stronger effect = lower value
In short: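 Multi-cell-type spheroids of tumor cells with HUVEC and mesenchymal stem cells, treated with drug combinations. Concentrations descend in half-log steps from near clinical Cmax, or from 10 microM where Cmax is unknown; viability read-out.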

[1] = second compound 0.0316 µM, first compound 0.0316 µM
[2] = second compound 0.0316 µM, first compound 0.1 µM
[3] = second compound 0.0316 µM, first compound 0.316 µM
[4] = second compound 0.0316 µM, first compound 1 µM
[5] = second compound 0.0316 µM, first compound 3.16 µM
[6] = second compound 0.0316 µM, first compound 10 µM
[7] = second compound 0.1 µM, first compound 0.0316 µM
[8] = second compound 0.1 µM, first compound 0.1 µM
[9] = second compound 0.1 µM, first compound 0.316 µM
[10] = second compound 0.1 µM, first compound 1 µM
[11] = second compound 0.1 µM, first compound 3.16 µM
[12] = second compound 0.1 µM, first compound 10 µM
[13] = second compound 0.316 µM, first compound 0.0316 µM
[14] = second compound 0.316 µM, first compound 0.1 µM
[15] = second compound 0.316 µM, first compound 0.316 µM
[16] = second compound 0.316 µM, first compound 1 µM
[17] = second compound 0.316 µM, first compound 3.16 µM
[18] = second compound 0.316 µM, first compound 10 µM
[19] = second compound 1 µM, first compound 0.0316 µM
[20] = second compound 1 µM, first compound 0.1 µM
[21] = second compound 1 µM, first compound 0.316 µM
[22] = second compound 1 µM, first compound 1 µM
[23] = second compound 1 µM, first compound 3.16 µM
[24] = second compound 1 µM, first compound 10 µM
[25] = second compound 3.16 µM, first compound 0.0316 µM
[26] = second compound 3.16 µM, first compound 0.1 µM
[27] = second compound 3.16 µM, first compound 0.316 µM
[28] = second compound 3.16 µM, first compound 1 µM
[29] = second compound 3.16 µM, first compound 3.16 µM
[30] = second compound 3.16 µM, first compound 10 µM
[31] = second compound 10 µM, first compound 0.0316 µM
[32] = second compound 10 µM, first compound 0.1 µM
[33] = second compound 10 µM, first compound 0.316 µM
[34] = second compound 10 µM, first compound 1 µM
[35] = second compound 10 µM, first compound 3.16 µM
[36] = second compound 10 µM, first compound 10 µM
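Note: spheroids exposed to compounds for 7 days before readout.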

CC(=O)O[C@H]1C(=O)[C@@]2(C)[C@H]([C@H](OC(=O)c3ccccc3)[C@]3(O)C[C@H](OC(=O)[C@H](O)[C@@H](NC(=O)c4ccccc4)c4ccccc4)C(C)=C1C3(C)C)[C@]1(OC(C)=O)CO[C@@H]1C[C@@H]2O + CN(C)c1ccc(Nc2c3ccc(NC(=O)CCN4CCCC4)cc3nc3cc(NC(=O)CCN4CCCC4)ccc23)cc1
IC50 (second compound 0.0316 µM): 222 nM
IC50 (second compound 0.1 µM): 220 nM
IC50 (second compound 0.316 µM): 190 nM
IC50 (second compound 1 µM): 89.8 nM
IC50 (second compound 3.16 µM): 93.3 nM
IC50 (second compound 10 µM): 207 nM
viability, T/C [1]: 76.8%
viability, T/C [2]: 57.2%
viability, T/C [3]: 48.6%
viability, T/C [4]: 39.2%
viability, T/C [5]: 43.2%
viability, T/C [6]: 46.2%
viability, T/C [7]: 72.7%
viability, T/C [8]: 58.1%
viability, T/C [9]: 46.5%
viability, T/C [10]: 38.9%
viability, T/C [11]: 49.7%
viability, T/C [12]: 48.5%
viability, T/C [13]: 73.9%
viability, T/C [14]: 54.4%
viability, T/C [15]: 47%
viability, T/C [16]: 41.2%
viability, T/C [17]: 49.6%
viability, T/C [18]: 42%
viability, T/C [19]: 59.2%
viability, T/C [20]: 50.6%
viability, T/C [21]: 40.5%
viability, T/C [22]: 39.3%
viability, T/C [23]: 39%
viability, T/C [24]: 35.1%
viability, T/C [25]: 65.8%
viability, T/C [26]: 51%
viability, T/C [27]: 38.4%
viability, T/C [28]: 45.6%
viability, T/C [29]: 44.2%
viability, T/C [30]: 39.4%
viability, T/C [31]: 70%
viability, T/C [32]: 51.8%
viability, T/C [33]: 51.2%
viability, T/C [34]: 46.5%
viability, T/C [35]: 41.8%
viability, T/C [36]: 46.3%

CCc1c2c(nc3ccc(O)cc13)-c1cc3c(c(=O)n1C2)COC(=O)[C@]3(O)CC + CN(C)c1ccc(Nc2c3ccc(NC(=O)CCN4CCCC4)cc3nc3cc(NC(=O)CCN4CCCC4)ccc23)cc1
IC50 (second compound 0.0316 µM): 5.23 nM
IC50 (second compound 0.1 µM): 4.26 nM
IC50 (second compound 0.316 µM): 5.24 nM
IC50 (second compound 1 µM): 4.96 nM
IC50 (second compound 3.16 µM): 3.16 nM
IC50 (second compound 10 µM): 4.78 nM
viability, T/C (second compound 0.0316 µM, first compound 0.000999 µM): 105%
viability, T/C (second compound 0.0316 µM, first compound 0.00316 µM): 57.8%
viability, T/C (second compound 0.0316 µM, first compound 0.00999 µM): 38.6%
viability, T/C [1]: 23.4%
viability, T/C (second compound 0.0316 µM, first compound 0.0999 µM): 15.9%
viability, T/C [3]: 9.58%
viability, T/C (second compound 0.1 µM, first compound 0.000999 µM): 85.1%
viability, T/C (second compound 0.1 µM, first compound 0.00316 µM): 51.9%
viability, T/C (second compound 0.1 µM, first compound 0.00999 µM): 39.6%
viability, T/C [7]: 22.4%
viability, T/C (second compound 0.1 µM, first compound 0.0999 µM): 14.7%
viability, T/C [9]: 11.4%
viability, T/C (second compound 0.316 µM, first compound 0.000999 µM): 79.6%
viability, T/C (second compound 0.316 µM, first compound 0.00316 µM): 61.9%
viability, T/C (second compound 0.316 µM, first compound 0.00999 µM): 34.6%
viability, T/C [13]: 21.4%
viability, T/C (second compound 0.316 µM, first compound 0.0999 µM): 15.3%
viability, T/C [15]: 9.02%
viability, T/C (second compound 1 µM, first compound 0.000999 µM): 84.3%
viability, T/C (second compound 1 µM, first compound 0.00316 µM): 57%
viability, T/C (second compound 1 µM, first compound 0.00999 µM): 38.8%
viability, T/C [19]: 23.9%
viability, T/C (second compound 1 µM, first compound 0.0999 µM): 13.8%
viability, T/C [21]: 8.31%
viability, T/C (second compound 3.16 µM, first compound 0.000999 µM): 74.9%
viability, T/C (second compound 3.16 µM, first compound 0.00316 µM): 49.3%
viability, T/C (second compound 3.16 µM, first compound 0.00999 µM): 31.9%
viability, T/C [25]: 24.7%
viability, T/C (second compound 3.16 µM, first compound 0.0999 µM): 15.9%
viability, T/C [27]: 9.07%
viability, T/C (second compound 10 µM, first compound 0.000999 µM): 79.5%
viability, T/C (second compound 10 µM, first compound 0.00316 µM): 57.9%
viability, T/C (second compound 10 µM, first compound 0.00999 µM): 35.8%
viability, T/C [31]: 26.8%
viability, T/C (second compound 10 µM, first compound 0.0999 µM): 19.6%
viability, T/C [33]: 9.4%

COc1cc(C2c3cc4c(cc3C(OC3OC5COC(C)OC5C(O)C3O)C3COC(=O)C23)OCO4)cc(OC)c1O (stereo unspecified) + CN(C)c1ccc(Nc2c3ccc(NC(=O)CCN4CCCC4)cc3nc3cc(NC(=O)CCN4CCCC4)ccc23)cc1
IC50 (second compound 0.0316 µM): 4940 nM
IC50 (second compound 0.1 µM): 4350 nM
IC50 (second compound 0.316 µM): 4030 nM
IC50 (second compound 1 µM): 2930 nM
IC50 (second compound 3.16 µM): 4710 nM
IC50 (second compound 10 µM): 3610 nM
viability, T/C [1]: 98.6%
viability, T/C [2]: 87.8%
viability, T/C [3]: 88.9%
viability, T/C [4]: 70.4%
viability, T/C [5]: 57.8%
viability, T/C [6]: 38.5%
viability, T/C [7]: 99.6%
viability, T/C [8]: 95.2%
viability, T/C [9]: 87.5%
viability, T/C [10]: 79%
viability, T/C [11]: 54%
viability, T/C [12]: 36%
viability, T/C [13]: 93.5%
viability, T/C [14]: 78.9%
viability, T/C [15]: 85.5%
viability, T/C [16]: 70.3%
viability, T/C [17]: 53.6%
viability, T/C [18]: 34.1%
viability, T/C [19]: 90.5%
viability, T/C [20]: 82%
viability, T/C [21]: 87.4%
viability, T/C [22]: 74.3%
viability, T/C [23]: 48.5%
viability, T/C [24]: 37.4%
viability, T/C [25]: 88%
viability, T/C [26]: 78.5%
viability, T/C [27]: 77.8%
viability, T/C [28]: 66.3%
viability, T/C [29]: 60.4%
viability, T/C [30]: 36.6%
viability, T/C [31]: 79%
viability, T/C [32]: 84.8%
viability, T/C [33]: 75.1%
viability, T/C [34]: 61%
viability, T/C [35]: 55%
viability, T/C [36]: 33.6%
